Experiments:
Test in all cases: radiometric filter-binding kinase assay, Kinase HotSpot
Conditions in all cases: compound 0.5 µM; ATP 10 µM
ABL1 (human) = ABL1 (human) (UniProt P00519)
ACVRL1 (human) = ACVRL1 (human) (UniProt P37023)
BRSK2 (human) = BRSK2 (human) (UniProt Q8IWQ3)
CAMK1G (human) = CAMK1G (human) (UniProt Q96NX5)
CAMK2D (human) = CAMK2D (human) (UniProt Q13557)
CAMK2G (human) = CAMK2G (human) (UniProt Q13555)
CDK3 CCNE1 (human) = CDK3 CCNE1 (human) (UniProt Q00526+P24864)
CDK6 CCND1 (human) = CDK6 CCND1 (human) (UniProt Q00534+P24385)
CDK6 CCND3 (human) = CDK6 CCND3 (human) (UniProt P30281+Q00534)
CDK7 CCNH MNAT1 (human) = CDK7 CCNH MNAT1 (human) (UniProt P50613+P51948+P51946)
CDK9 CCNK (human) = CDK9 CCNK (human) (UniProt O75909+P50750)
CLK1 (human) = CLK1 (human) (UniProt P49759)
CSF1R (human) = CSF1R (human) (UniProt P07333)
CSNK1A1 (human) = CSNK1A1 (human) (UniProt P48729)
DYRK1A (human) = DYRK1A (human) (UniProt Q13627)
EPHA4 (human) = EPHA4 (human) (UniProt P54764)
EPHB4 (human) = EPHB4 (human) (UniProt P54760)
FGFR2 (human) = FGFR2 (human) (UniProt P21802)
FYN (human) = FYN (human) (UniProt P06241)
GSK3A (human) = GSK3A (human) (UniProt P49840)
HIPK1 (human) = HIPK1 (human) (UniProt Q86Z02)
MAP2K2 (human) = MAP2K2 (human) (UniProt P36507)
MAP3K10 (human) = MAP3K10 (human) (UniProt Q02779)
MAP3K2 (human) = MAP3K2 (human) (UniProt Q9Y2U5)
MAP4K5 (human) = MAP4K5 (human) (UniProt Q9Y4K4)
MERTK (human) = MERTK (human) (UniProt Q12866)
NEK11 (human) = NEK11 (human) (UniProt Q8NG66)
NEK4 (human) = NEK4 (human) (UniProt P51957)
PLK2 (human) = PLK2 (human) (UniProt Q9NYY3)
PTK2B (human) = PTK2B (human) (UniProt Q14289)
PTK6 (human) = PTK6 (human) (UniProt Q13882)
RPS6KA2 KD1 KD2 (human) = RPS6KA2 KD1 KD2 (human) (UniProt Q15349)
RPS6KA4 KD2 (human) = RPS6KA4 KD2 (human) (UniProt O75676)
RPS6KA5 KD2 (human) = RPS6KA5 KD2 (human) (UniProt O75582)
SLK (human) = SLK (human) (UniProt Q9H2G2)
SRC (human) = SRC (human) (UniProt P12931)
SRMS (human) = SRMS (human) (UniProt Q9H3Y6)
TAOK2 (human) = TAOK2 (human) (UniProt Q9UL54)
TEC (human) = TEC (human) (UniProt P42680)
TSSK2 (human) = TSSK2 (human) (UniProt Q96PF2)
WNK2 (human) = WNK2 (human) (UniProt Q9Y3S1)

Chain of CSNK1A1 (human) (P48729 whole entry, looked up): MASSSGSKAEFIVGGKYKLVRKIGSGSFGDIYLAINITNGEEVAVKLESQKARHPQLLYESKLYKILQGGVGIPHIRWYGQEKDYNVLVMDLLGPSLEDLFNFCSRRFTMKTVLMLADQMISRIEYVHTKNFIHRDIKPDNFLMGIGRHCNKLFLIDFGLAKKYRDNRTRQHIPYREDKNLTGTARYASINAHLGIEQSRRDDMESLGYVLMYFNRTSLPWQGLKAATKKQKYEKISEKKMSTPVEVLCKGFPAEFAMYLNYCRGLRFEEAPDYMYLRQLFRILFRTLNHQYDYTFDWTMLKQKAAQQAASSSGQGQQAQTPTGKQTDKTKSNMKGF
Chain of NEK11 (human) (Q8NG66 whole entry, looked up): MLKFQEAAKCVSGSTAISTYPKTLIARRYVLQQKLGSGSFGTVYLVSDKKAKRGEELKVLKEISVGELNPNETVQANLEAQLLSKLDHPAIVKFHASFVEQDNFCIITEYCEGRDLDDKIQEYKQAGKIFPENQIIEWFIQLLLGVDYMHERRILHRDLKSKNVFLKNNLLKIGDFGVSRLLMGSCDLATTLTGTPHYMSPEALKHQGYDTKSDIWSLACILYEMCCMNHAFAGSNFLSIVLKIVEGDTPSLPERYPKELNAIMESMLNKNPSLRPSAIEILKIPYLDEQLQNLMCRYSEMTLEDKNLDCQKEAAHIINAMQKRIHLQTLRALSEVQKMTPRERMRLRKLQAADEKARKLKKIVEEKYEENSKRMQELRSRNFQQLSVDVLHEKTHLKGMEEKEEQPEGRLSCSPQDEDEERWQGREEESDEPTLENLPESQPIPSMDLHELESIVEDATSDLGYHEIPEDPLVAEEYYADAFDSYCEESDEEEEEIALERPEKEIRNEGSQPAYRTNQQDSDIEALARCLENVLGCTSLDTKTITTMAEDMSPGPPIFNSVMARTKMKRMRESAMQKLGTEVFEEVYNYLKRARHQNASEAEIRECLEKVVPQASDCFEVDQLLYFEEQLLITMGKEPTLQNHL
Chain of CSF1R (human) (P07333 whole entry, looked up): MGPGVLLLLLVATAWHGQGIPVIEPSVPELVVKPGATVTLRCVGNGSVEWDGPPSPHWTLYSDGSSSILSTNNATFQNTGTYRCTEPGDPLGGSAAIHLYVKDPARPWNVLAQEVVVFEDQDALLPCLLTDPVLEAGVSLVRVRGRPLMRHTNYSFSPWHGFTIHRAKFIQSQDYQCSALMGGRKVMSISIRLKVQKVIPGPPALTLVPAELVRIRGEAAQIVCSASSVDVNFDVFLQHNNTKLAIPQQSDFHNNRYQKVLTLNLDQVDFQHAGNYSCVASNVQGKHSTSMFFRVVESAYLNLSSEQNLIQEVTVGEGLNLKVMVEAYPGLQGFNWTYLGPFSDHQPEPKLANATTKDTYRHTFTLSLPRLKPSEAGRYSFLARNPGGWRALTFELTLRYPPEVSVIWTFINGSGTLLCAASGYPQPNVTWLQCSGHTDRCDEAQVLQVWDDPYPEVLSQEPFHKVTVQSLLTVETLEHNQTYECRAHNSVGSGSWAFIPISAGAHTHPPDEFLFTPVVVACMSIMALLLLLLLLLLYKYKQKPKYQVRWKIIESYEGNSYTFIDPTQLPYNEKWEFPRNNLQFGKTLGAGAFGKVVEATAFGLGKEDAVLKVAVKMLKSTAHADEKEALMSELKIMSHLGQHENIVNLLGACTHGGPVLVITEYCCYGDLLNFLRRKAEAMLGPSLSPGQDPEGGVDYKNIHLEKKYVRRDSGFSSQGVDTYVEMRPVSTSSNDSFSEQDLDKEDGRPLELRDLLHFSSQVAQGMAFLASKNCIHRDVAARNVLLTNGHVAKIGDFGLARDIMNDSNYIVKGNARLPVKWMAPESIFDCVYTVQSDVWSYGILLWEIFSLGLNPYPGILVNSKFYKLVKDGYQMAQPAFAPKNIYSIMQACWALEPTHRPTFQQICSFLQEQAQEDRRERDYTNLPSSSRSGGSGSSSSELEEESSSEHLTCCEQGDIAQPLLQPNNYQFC
Chain of RPS6KA2 KD1 KD2 (human) (Q15349 whole entry, looked up): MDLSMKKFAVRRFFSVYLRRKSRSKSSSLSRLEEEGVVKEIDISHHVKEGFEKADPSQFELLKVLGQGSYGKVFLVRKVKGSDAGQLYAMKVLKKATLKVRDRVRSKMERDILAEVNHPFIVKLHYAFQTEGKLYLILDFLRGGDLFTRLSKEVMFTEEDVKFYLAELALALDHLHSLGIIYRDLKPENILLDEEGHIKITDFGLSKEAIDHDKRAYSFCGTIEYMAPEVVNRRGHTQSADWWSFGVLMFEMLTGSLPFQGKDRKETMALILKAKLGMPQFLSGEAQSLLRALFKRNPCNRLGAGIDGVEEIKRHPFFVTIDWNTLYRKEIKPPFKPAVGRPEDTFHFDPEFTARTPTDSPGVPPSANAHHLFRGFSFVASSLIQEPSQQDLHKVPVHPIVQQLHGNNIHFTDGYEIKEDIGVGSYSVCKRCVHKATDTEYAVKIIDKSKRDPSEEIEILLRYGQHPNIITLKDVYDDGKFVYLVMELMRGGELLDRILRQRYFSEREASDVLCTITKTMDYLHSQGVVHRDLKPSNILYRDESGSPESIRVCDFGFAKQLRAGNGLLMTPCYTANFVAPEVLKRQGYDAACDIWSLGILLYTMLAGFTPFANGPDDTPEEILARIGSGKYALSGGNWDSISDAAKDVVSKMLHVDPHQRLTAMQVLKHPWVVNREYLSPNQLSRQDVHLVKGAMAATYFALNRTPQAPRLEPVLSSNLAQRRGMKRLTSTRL
Chain of RPS6KA4 KD2 (human) (O75676 whole entry, looked up): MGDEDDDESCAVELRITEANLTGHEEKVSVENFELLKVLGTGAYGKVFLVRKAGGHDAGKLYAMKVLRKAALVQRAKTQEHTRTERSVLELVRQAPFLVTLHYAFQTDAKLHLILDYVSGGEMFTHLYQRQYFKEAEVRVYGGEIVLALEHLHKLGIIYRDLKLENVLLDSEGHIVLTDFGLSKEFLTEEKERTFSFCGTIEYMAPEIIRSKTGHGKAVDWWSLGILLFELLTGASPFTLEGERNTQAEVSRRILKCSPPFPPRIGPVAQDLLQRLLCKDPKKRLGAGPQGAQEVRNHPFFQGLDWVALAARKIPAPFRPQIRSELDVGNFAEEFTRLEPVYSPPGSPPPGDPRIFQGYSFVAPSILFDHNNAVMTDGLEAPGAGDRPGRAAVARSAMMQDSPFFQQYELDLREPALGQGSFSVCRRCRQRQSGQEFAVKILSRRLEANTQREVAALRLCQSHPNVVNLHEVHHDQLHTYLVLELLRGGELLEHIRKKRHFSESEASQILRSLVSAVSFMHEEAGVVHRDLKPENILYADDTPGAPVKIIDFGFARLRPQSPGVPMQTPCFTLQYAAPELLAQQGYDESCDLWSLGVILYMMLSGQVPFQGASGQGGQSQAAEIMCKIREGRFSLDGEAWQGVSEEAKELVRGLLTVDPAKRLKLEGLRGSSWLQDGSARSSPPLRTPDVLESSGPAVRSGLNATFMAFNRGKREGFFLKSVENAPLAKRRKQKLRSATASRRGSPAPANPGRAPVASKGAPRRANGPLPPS
Chain of MERTK (human) (Q12866 whole entry, looked up): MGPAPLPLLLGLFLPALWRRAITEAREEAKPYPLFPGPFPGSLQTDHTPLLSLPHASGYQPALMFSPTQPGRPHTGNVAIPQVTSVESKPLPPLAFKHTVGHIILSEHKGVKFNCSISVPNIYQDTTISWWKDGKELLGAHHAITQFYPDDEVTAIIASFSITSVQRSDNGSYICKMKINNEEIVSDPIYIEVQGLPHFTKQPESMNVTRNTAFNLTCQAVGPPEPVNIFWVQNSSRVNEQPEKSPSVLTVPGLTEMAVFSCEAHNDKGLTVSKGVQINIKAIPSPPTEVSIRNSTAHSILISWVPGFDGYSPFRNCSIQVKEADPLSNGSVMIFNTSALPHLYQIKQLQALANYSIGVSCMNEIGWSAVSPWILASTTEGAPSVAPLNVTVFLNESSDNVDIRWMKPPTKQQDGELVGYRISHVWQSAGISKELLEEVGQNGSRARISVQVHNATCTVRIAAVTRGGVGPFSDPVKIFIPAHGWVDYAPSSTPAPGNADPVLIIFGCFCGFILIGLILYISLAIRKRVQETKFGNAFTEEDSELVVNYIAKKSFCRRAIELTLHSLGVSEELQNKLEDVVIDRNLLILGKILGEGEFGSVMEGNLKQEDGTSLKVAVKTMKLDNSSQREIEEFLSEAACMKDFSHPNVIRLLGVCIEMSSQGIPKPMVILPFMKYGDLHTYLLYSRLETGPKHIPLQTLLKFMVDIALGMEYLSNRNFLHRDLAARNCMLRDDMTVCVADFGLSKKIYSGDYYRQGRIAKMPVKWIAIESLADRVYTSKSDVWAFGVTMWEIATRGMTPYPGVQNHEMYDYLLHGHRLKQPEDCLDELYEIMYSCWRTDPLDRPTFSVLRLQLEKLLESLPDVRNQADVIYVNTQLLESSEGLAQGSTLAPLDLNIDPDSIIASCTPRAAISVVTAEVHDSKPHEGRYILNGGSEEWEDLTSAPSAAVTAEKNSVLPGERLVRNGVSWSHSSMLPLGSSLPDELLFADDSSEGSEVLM
Chain of SRMS (human) (Q9H3Y6 whole entry, looked up): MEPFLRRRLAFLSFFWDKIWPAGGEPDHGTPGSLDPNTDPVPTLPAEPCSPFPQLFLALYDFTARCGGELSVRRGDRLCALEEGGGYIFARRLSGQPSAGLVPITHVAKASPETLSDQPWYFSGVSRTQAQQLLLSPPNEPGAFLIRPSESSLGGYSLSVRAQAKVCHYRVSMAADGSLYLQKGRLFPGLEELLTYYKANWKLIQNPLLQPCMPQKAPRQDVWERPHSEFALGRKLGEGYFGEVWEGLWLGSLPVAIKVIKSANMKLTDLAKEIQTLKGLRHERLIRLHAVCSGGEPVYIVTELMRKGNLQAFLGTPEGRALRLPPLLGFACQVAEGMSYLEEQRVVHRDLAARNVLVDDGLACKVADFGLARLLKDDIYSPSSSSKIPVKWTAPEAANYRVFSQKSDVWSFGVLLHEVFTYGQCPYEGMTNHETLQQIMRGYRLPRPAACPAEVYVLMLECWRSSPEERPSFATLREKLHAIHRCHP

Q: For O=C1Nc2ccc(Cl)cc2/C1=C/c1cc(Cl)c(O)c(Cl)c1, which residual activity (ABL1 (human)) is on record?
A: The residual activity was 84%.

Q: What about the residual activity (ACVRL1 (human)) of the same compound?
A: The residual activity was 96.4%.

Q: And the residual activity (BRSK2 (human))?
A: The residual activity was 77.2%.

Q: And the residual activity (CAMK1G (human))?
A: Its residual activity is 96.6%.

Q: What about the residual activity (CAMK2D (human)) of the same compound?
A: Its residual activity is 80.2%.

Q: What about the residual activity (CAMK2G (human)) of the same compound?
A: The residual activity was 119%.

Q: And the residual activity (CDK3 CCNE1 (human))?
A: The residual activity was 85.4%.

Q: And the residual activity (CDK6 CCND1 (human))?
A: Its residual activity is 97%.

Q: What about the residual activity (CDK6 CCND3 (human)) of the same compound?
A: Its residual activity is 94.1%.

Q: What about the residual activity (CDK7 CCNH MNAT1 (human)) of the same compound?
A: The residual activity was 96.7%.

Q: What about the residual activity (CDK9 CCNK (human)) of the same compound?
A: Its residual activity is 79.4%.

Q: And the residual activity (CLK1 (human))?
A: The residual activity was 85%.

Q: And the residual activity (CSF1R (human))?
A: Its residual activity is 77.9%.

Q: What about the residual activity (CSNK1A1 (human)) of the same compound?
A: The residual activity was 92.6%.

Q: What about the residual activity (DYRK1A (human)) of the same compound?
A: The residual activity was 95.6%.

Q: What about the residual activity (EPHA4 (human)) of the same compound?
A: The residual activity was 93.1%.

Q: And the residual activity (EPHB4 (human))?
A: The residual activity was 100%.

Q: What about the residual activity (FGFR2 (human)) of the same compound?
A: The residual activity was 92%.

Q: And the residual activity (FYN (human))?
A: Its residual activity is 73%.

Q: And the residual activity (GSK3A (human))?
A: The residual activity was 76.1%.

Q: And the residual activity (HIPK1 (human))?
A: The residual activity was 102%.

Q: What about the residual activity (MAP2K2 (human)) of the same compound?
A: Its residual activity is 82%.

Q: And the residual activity (MAP3K10 (human))?
A: The residual activity was 86.8%.

Q: What about the residual activity (MAP3K2 (human)) of the same compound?
A: Its residual activity is 95.7%.

Q: And the residual activity (MAP4K5 (human))?
A: Its residual activity is 75.9%.

Q: And the residual activity (MERTK (human))?
A: Its residual activity is 88.4%.

Q: And the residual activity (NEK11 (human))?
A: Its residual activity is 104%.

Q: And the residual activity (NEK4 (human))?
A: Its residual activity is 88.2%.

Q: What about the residual activity (PLK2 (human)) of the same compound?
A: The residual activity was 95.4%.

Q: What about the residual activity (PTK2B (human)) of the same compound?
A: The residual activity was 96.7%.

Q: And the residual activity (PTK6 (human))?
A: The residual activity was 73.8%.

Q: What about the residual activity (RPS6KA2 KD1 KD2 (human)) of the same compound?
A: The residual activity was 71.9%.

Q: And the residual activity (RPS6KA4 KD2 (human))?
A: Its residual activity is 98%.

Q: What about the residual activity (RPS6KA5 KD2 (human)) of the same compound?
A: The residual activity was 86.1%.

Q: What about the residual activity (SLK (human)) of the same compound?
A: The residual activity was 95.3%.

Q: And the residual activity (SRC (human))?
A: Its residual activity is 96.2%.

Q: What about the residual activity (SRMS (human)) of the same compound?
A: The residual activity was 86.3%.

Q: And the residual activity (TAOK2 (human))?
A: The residual activity was 81.3%.

Q: What about the residual activity (TEC (human)) of the same compound?
A: The residual activity was 109%.

Q: What about the residual activity (TSSK2 (human)) of the same compound?
A: The residual activity was 94.4%.

Q: And the residual activity (WNK2 (human))?
A: Its residual activity is 115%.

Q: What does the source list for Nc1ncnc2c1c(-c1ccc(Oc3ccccc3)cc1)cn2C1CCCC1?
A: residual activity (ABL1 (human)): 67.4%; residual activity (ACVRL1 (human)): 95.9%; residual activity (BRSK2 (human)): 98.3%; residual activity (CAMK1G (human)): 95.8%; residual activity (CAMK2D (human)): 99.5%; residual activity (CAMK2G (human)): 95%; residual activity (CDK3 CCNE1 (human)): 92.6%; residual activity (CDK6 CCND1 (human)): 98.2%; residual activity (CDK6 CCND3 (human)): 97.2%; residual activity (CDK7 CCNH MNAT1 (human)): 96.8%; residual activity (CDK9 CCNK (human)): 104%; residual activity (CLK1 (human)): 103%; residual activity (CSF1R (human)): 61.3%; residual activity (CSNK1A1 (human)): 84.9%; residual activity (DYRK1A (human)): 99.1%; residual activity (EPHA4 (human)): 87.5%; residual activity (EPHB4 (human)): 98.3%; residual activity (FGFR2 (human)): 78%; residual activity (FYN (human)): 3.51%; residual activity (GSK3A (human)): 105%; residual activity (HIPK1 (human)): 114%; residual activity (MAP2K2 (human)): 103%; residual activity (MAP3K10 (human)): 82.6%; residual activity (MAP3K2 (human)): 83.8%; residual activity (MAP4K5 (human)): 80.2%; residual activity (MERTK (human)): 87.4%; residual activity (NEK11 (human)): 87.1%; residual activity (NEK4 (human)): 92.1%; residual activity (PLK2 (human)): 92.5%; residual activity (PTK2B (human)): 96.7%; residual activity (PTK6 (human)): 0.775%; residual activity (RPS6KA2 KD1 KD2 (human)): 101%; residual activity (RPS6KA4 KD2 (human)): 105%; residual activity (RPS6KA5 KD2 (human)): 90.5%; residual activity (SLK (human)): 96.5%; residual activity (SRC (human)): 13.4%; residual activity (SRMS (human)): 14.2%; residual activity (TAOK2 (human)): 104%; residual activity (TEC (human)): 8.33%; residual activity (TSSK2 (human)): 92.1%; residual activity (WNK2 (human)): 102%
